Test results from ChEMBL document CHEMBL2401673, “Design, synthesis, functional and structural characterization of an inhibitor of N-acetylneuraminate-9-phosphate phosphatase: observation of extensive dynamics in an enzyme/inhibitor complex” (Bioorg Med Chem Lett, 2013).

Experiments:
[1] = Dissociation constant, pKa of the compound by potentiometric titration method; format: physicochemical
[2] = target: T1, N-acylneuraminate-9-phosphatase (Homo sapiens, UniProt Q8TBE9); assay: Inhibition of recombinant HDHD4 (unknown origin) using Neu5Ac-9-P as substrate assessed as release of phosphate after 30 mins by maiachite green assay
T1 sequence (Q8TBE9 whole entry): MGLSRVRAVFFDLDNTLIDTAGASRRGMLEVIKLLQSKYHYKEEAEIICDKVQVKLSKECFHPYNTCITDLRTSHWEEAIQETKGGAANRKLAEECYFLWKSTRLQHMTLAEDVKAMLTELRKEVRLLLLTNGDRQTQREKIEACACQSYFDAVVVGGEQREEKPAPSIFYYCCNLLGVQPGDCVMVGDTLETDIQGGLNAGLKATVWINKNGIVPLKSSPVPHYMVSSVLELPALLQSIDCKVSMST

[3] = target: T1, N-acylneuraminate-9-phosphatase; assay: Reversible inhibition of recombinant HDHD4 (unknown origin) using Neu5Ac-9-P as substrate assessed as release of phosphate after 30 mins by maiachite green assay

| SMILES | pKa [1] | IC50 [2] | IC50 [3] |
| --- | --- | --- | --- |
| CC(=O)N[C@H]1[C@H]([C@H](O)[C@H](O)CO)O[C@](O)(C(=O)O)C[C@@H]1O | 3.2 |  |  |
| CO[C@@]1(C(=O)O)C[C@H](O)[C@@H](NC(C)=O)[C@H]([C@H](O)[C@H](O)CCP(=O)(O)O)O1 |  | 49.8 µM |  |
| CC(=O)N[C@H]1[C@H]([C@H](O)[C@H](O)CCP(=O)(O)O)O[C@](O)(C(=O)O)C[C@@H]1O | 3.5 |  | 11 µM |
| CC(=O)N[C@H]1[C@H]([C@H](O)[C@H](O)COP(=O)(O)O)O[C@](O)(C(=O)O)C[C@@H]1O | 3.6 |  |  |
| CC(=O)N[C@H]1[C@H]([C@H](O)[C@H](O)CCC(=O)O)O[C@](O)(C(=O)O)C[C@@H]1O |  | > 100 µM |  |
| COC(=O)[C@]1(OC)C[C@H](O)[C@@H](NC(C)=O)[C@H]([C@H](O)[C@H](O)CCP(=O)(O)O)O1 |  | 93.7 µM |  |
